Experimental data reported in patent US9862697B2, “pH-sensitive fluorescent sensors for biological amines” (The Curators of the University of Missouri, priority 2013, dated 2018).
Marks after values point to notes of the source that are not given here. One block for each compound: values may come before it.

Experiments:
[1] = pH titration of sensor (absorbance and fluorescence monitored), pKa; assay type: physicochemical; conditions: buffered solution of the sensor; unbound sensor; pH and fluorescence intensity data fit to a pH isotherm
Experimental: (§1) The spectroscopic properties of several exemplary inventive sensors have been examined, along with the starting compound 1, as 7-hydroxycoumarins are well known for their pH-sensitivity. First, the acidity of the sensors was discerned by performing pH titrations where aliquots of aqueous HCl were added to a buffered solution of the sensor and the absorbance and fluorescence were monitored. The pKa of the pH-sensitive unit is related to the donating ability of the sulfonamide substituent. ES517 has a dimethylamino-substituent on the sulfonamide which is the best electron-donor into the sulfonyl motif. This makes deprotonation of the N—H proton located at the 7-position of the coumarin core the least favorable and therefore the least acidic. The pH and fluorescence intensity data were fit to a pH isotherm and the pKa was determined to be 6.3. As the donating ability of the sulfonamide substituent into the sulfonyl motif worsened, the acidity of the N—H proton located at the 7-position of the coumarin core increased. The aromatic substituents are the least electron donating substituents into the sulfonyl motif which explains the greater acidity. By using a single coupling reaction, the pKa of the sensor may be tuned to fit the parameters of the experiment.

[2] = Spectroscopic properties of unbound sensors; assay type: physicochemical; design: λmax (GH) / λmax (G-): unit not given here; conditions: for λem (ex: 488 nm): excitation 488 nm; for λmax (G-) / λmax (GH): unbound sensor; for λmax (G-): deprotonated form G-; for λmax (GH): protonated form GH
Experimental: as §1
(§2) Table 1 summarizes the spectroscopic properties of the tested compounds in pH varying environments, mimicking the vesicular and synaptic cleft conditions.

[3] = Fluorescence at pH 7.4 vs 5.0 of sensor saturated with glutamate
Experimental: Next, the sensor was saturated with 300 mM glutamate in order to mimic vesicular conditions. The fluorescence intensity of the bound complex was then monitored between the pH values of 5 and 7.4, the acidities associated with the synaptic vesicle and synaptic cleft, respectively. An excitation wavelength of 488 nm was used because it is far enough to the red to ensure that only the bound, deprotonated sensor was excited. It is also a common wavelength used in fluorescence microscopy cell studies. The fluorescence intensity increased for all sensors upon basification from pH 5 to 7.4, however the sensors with the highest pKa values gave the greatest enhancements.
as §2

[4] = Binding study (fluorescence titration) of ES517 with glutamate
Experimental: While low, this binding constant is believed to be preferred for reversible binding due to the high millimolar concentration of glutamate in a vesicle (˜300 mM).

[5] = Binding study (fluorescence titration) of ES517 with norepinephrine
[6] = Binding study (fluorescence titration) of ES517 with glycine
[7] = Fluorescence at pH 7.4 vs 5.0 of ES517 saturated with dopamine; conditions: ES517 20 μM saturated with 100 mM dopamine
From the text: (§3) The ES517 was further analyzed for binding and spectroscopic properties with the common neurotransmitters other than glutamate released upon exocytosis. […] The aromatic neurotransmitters dampened the fluorescence turn-on response of the inventive sensors due to the electron-rich nature of catecholamines (norepinephrine and dopamine) and indoleamines (serotonin).

[8] = Fluorescence at pH 7.4 vs 5.0 of ES517 saturated with GABA; conditions: ES517 20 μM saturated with 300 mM GABA
From the text: as §3

[9] = pKa and absorbance of the bound sensor (ES517 saturated with glutamate) over a wide pH range; assay type: physicochemical
From the text: ES517 was saturated with glutamate and the spectroscopic properties measured over a wide pH range. The protonated form of the bound sensor (FIG. 4, structure B) absorbed at 368 nm. […] The 428 nm band was assigned to the unbound deprotonated form of the sensor (structure C). The 458 nm band therefore represents the bound, deprotonated sensor (structure D). The plot of pH vs. intensity was fit to a pH isotherm and the pKa determined to be 6.3.

[10] = Fluorescence at pH 7.4 vs 5.0 of ES517 saturated with norepinephrine; conditions: ES517 20 μM saturated with 100 mM norepinephrine
From the text: as §3

[11] = Binding study (fluorescence titration) of ES517 with serotonin
[12] = Binding study (fluorescence titration) of ES517 with GABA
[13] = Binding study (fluorescence titration) of ES517 with dopamine
[14] = Fluorescence at pH 7.4 vs 5.0 of ES517 saturated with glycine; conditions: ES517 20 μM saturated with 300 mM glycine
From the text: as §3

[15] = sensor saturated with 0.3M glutamate, intensities monitored at pH 5.0 and 7.4
[16] = ES517 20 μM, buffered, pH 7.4, ±10% error
[17] = fluorescence enhancement upon binding at pH 7.4, λem = 517 nm

- pKa [1]: 5.9
- λem (ex: 488 nm) [2]: 489 nm
- λmax (G-) [2]: 420
- λmax (GH) [2]: 365
Compound: CS(=O)(=O)Nc1ccc2c(-c3ccccc3)c(C=O)c(=O)oc2c1
- IpH 7.4/IpH 5 [3, 15]: 5.5

- pKa [1]: 5.2
- λem (ex: 488 nm) [2]: 494 nm
- λmax (G-) [2]: 416
- λmax (GH) [2]: 366
Compound: O=Cc1c(-c2ccccc2)c2ccc(NS(=O)(=O)c3cccs3)cc2oc1=O
- IpH 7.4/IpH 5 [3, 15]: 2.5

- pKa [1]: 5.8
- λem (ex: 488 nm) [2]: 468 nm
- λmax (G-) [2]: 420
- λmax (GH) [2]: 368
Compound: O=Cc1c(-c2ccccc2)c2ccc(O)cc2oc1=O
- IpH 7.4/IpH 5 [3, 15]: 3.3

- pKa [1]: 6.3
- Ka ([4]; glutamate, ES517 20 μM, 50 mM bis-tris propane, 50 mM Na2S2O3, 1% DMSO, pH 7.4, ±10% error): 8.6 M⁻¹
- Isat/I0 ([4]; glutamate, fluorescence enhancement upon binding at pH 7.4, Isat from theoretical max of binding isotherm, λem = 517 nm): 12
- fluorescence enhancement upon binding to glutamate ([4]; titration with glutamate, excitation 488 nm): 12 fold
- λem (ex: 488 nm) [2]: 498 nm
- λmax (G-) [2]: 419
- λmax (GH) [2]: 368
- Ka [5, 16]: 49 M⁻¹
- Isat/I0 [5, 17]: 14
- Ka [6, 16]: 9.2 M⁻¹
- Isat/I0 [6, 17]: 25
- absorbance of protonated form of the bound sensor (structure B) [9]: 368 nm
- absorbance band of bound, deprotonated sensor (structure D) ([9]; upon deprotonation): 458 nm
- absorbance band of unbound deprotonated form of the sensor (structure C) ([9]; upon deprotonation): 428 nm
- Ka [11, 16]: 54 M⁻¹
- Isat/I0 [11, 17]: 0.5
- Ka [12, 16]: 8.3 M⁻¹
- Isat/I0 [12, 17]: 27
- Ka [13, 16]: 55 M⁻¹
- Isat/I0 [13, 17]: 10
Compound: CN(C)S(=O)(=O)Nc1ccc2c(-c3ccccc3)c(C=O)c(=O)oc2c1 [ES517]
- IpH 7.4/IpH 5 [7]: 5.5 ^e
- IpH 7.4/IpH 5 [8]: 11 ^d
- IpH 7.4/IpH 5 [10]: 5.3 ^e
- IpH 7.4/IpH 5 ([3]; ES517 20 μM saturated with 300 mM glutamate, fluorescence at pH 7.4 vs. 5.0): 12^d
- IpH 7.4/IpH 5 [3, 15]: 12
- IpH 7.4/IpH 5 [14]: 10 ^d
